According to patent US20200255478A1, “NOVEL COMPOUNDS ACTIVATING THE NRF2 PATHWAY” (Almirall, S.A., priority 2017, published 2020):
Where two headings read alike, the source gives them in different places. Starred links: 1 amine or outer side, 2 acyl side, 3 side chain; linkers in the order of their positions; H or OH if unused. Positions of bridges follow the written chain, without caps; N, C: chain ends. Non-standard residues stand in square brackets, D forms with d. Residues, ends and D or L forms follow the SMILES beside them. *: point of attachment. X8 = O=C([C@H](Cc1cccc([*:3])c1)N[*:1])[*:2]; mXylylene = c1cc(C[*:1])cc(C[*:2])c1; oXylylene = c1ccc(C[*:2])c(C[*:1])c1; X2 = c1ccc2cc(C[*:2])c(C[*:1])cc2c1; Stearoyl = CCCCCCCCCCCCCCCCCC(=O)*; βAla = NCCC(=O)O

Target: Keap1-Maltose Binding Protein (MBP tag) (Homo sapiens, UniProt Q14145)
Sequence (Q14145 whole entry): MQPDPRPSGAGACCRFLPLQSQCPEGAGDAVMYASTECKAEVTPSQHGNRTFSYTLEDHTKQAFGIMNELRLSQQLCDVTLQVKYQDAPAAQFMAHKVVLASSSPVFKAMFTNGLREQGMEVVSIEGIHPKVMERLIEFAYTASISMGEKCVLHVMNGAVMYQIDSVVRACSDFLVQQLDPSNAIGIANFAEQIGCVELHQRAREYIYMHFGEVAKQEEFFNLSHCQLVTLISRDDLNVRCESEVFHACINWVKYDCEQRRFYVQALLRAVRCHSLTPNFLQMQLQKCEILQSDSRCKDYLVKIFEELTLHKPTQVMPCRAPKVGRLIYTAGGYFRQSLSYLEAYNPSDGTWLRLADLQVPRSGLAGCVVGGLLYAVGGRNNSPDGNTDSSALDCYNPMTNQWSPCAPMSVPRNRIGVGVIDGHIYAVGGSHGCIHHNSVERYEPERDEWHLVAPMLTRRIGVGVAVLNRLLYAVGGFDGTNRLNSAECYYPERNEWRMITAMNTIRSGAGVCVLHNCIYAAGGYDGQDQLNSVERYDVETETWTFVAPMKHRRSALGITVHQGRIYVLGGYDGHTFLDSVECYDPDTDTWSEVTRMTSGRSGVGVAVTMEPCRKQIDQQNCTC
Assay: Nrf2-Keap1 HTRF (TR-FRET) binding assay: displacement of biotinylated ETGE peptide from Keap1-MBP
[1] = HTRF (TR-FRET), displacement of ETGE-biotin from Keap1-MBP, values banded into grades, read-out: Binding (IC50) ETGE-Keap1

| Compound | IC50 [1] [nM] | IC50 [nM] |
| --- | --- | --- |
| CC(C)C[C@H](NC(=O)[C@@H]1CSCc2cc3ccccc3cc2CSC[C@H](NC(=O)[C@H](CCC(N)=O)NC(=O)[C@@H](N)CC(C)C)C(=O)N[C@@H](CC(=O)O)C(=O)N[C@@H](C)C(=O)N[C@@H](CCC(=O)O)C(=O)N[C@@H]([C@@H](C)O)C(=O)NCC(=O)N[C@@H](CCC(=O)O)C(=O)N1)C(=O)N1CCC[C@H]1C(=O)NCCC(=O)N[C@@H](CCCNC(=N)N)C(=O)N[C@@H](CCCCN)C(=O)N[C@@H](CCCCN)C(=O)N[C@@H](CCCNC(=N)N)C(=O)N[C@@H](CCCNC(=N)N)C(=O)N[C@@H](CCC(N)=O)C(=O)N[C@@H](CCCNC(=N)N)C(=O)N[C@@H](CCCNC(=N)N)C(=O)N[C@@H](CCCNC(=N)N)C(N)=O [Example 30] | 1 to 100 |  |
| CC(C)C[C@H](NC(=O)[C@@H]1CSCc2ccccc2CSC[C@H](NC(=O)[C@H](CCC(N)=O)NC(=O)[C@@H](N)CC(C)C)C(=O)N[C@@H](CC(=O)O)C(=O)N2CCC[C@H]2C(=O)N[C@@H](CCC(=O)O)C(=O)N[C@@H]([C@@H](C)O)C(=O)NCC(=O)N[C@@H](CCC(=O)O)C(=O)N1)C(=O)N1CCC[C@H]1C(=O)NCCC(=O)N[C@@H](CCCNC(=N)N)C(=O)N[C@@H](CCCCN)C(=O)N[C@@H](CCCCN)C(=O)N[C@@H](CCCNC(=N)N)C(=O)N[C@@H](CCCNC(=N)N)C(=O)N[C@@H](CCC(N)=O)C(=O)N[C@@H](CCCNC(=N)N)C(=O)N[C@@H](CCCNC(=N)N)C(=O)N[C@@H](CCCNC(=N)N)C(N)=O [Example 34] | 1 to 100 |  |
| CCCCCCCCCCCCCCCCCC(=O)NCCC(=O)N[C@@H](CC(C)C)C(=O)N[C@@H](CCC(N)=O)C(=O)N[C@H]1CSCc2ccccc2CSC[C@@H](C(=O)N[C@@H](CC(C)C)C(=O)N2CCC[C@H]2C(=O)O)NC(=O)[C@H](CCC(=O)O)NC(=O)CNC(=O)[C@H]([C@@H](C)O)NC(=O)[C@H](CCC(=O)O)NC(=O)[C@@H]2CCCN2C(=O)[C@H](CC(=O)O)NC1=O [Example 35, {[Stearyl-βAla-Leu-Gln-Cys(&^1)-Asp-Pro-Glu-Thr-Gly-G1u-Cys(&^2)-Leu-Pro-OH][&^1(1,2-phenylenediyl)dimethylene&^2]}] ({Stearoyl-βAla}-LQCDPETGECLP-OH; linker 3-10 via oXylylene) | 1 to 100 |  |
| CCCCCCCCCCCCCCCCCC(=O)NCCC(=O)N[C@@H](CC(C)C)C(=O)N[C@@H](CCC(N)=O)C(=O)N[C@H]1CSCc2cc3ccccc3cc2CSC[C@@H](C(=O)N[C@@H](CC(C)C)C(=O)N2CCC[C@H]2C(=O)O)NC(=O)[C@H](CCC(=O)O)NC(=O)CNC(=O)[C@H]([C@@H](C)O)NC(=O)[C@H](CCC(=O)O)NC(=O)[C@@H]2CCCN2C(=O)[C@H](CC(=O)O)NC1=O [Example 36, {[Stearyl-βAla-Leu-Gln-Cys(&^1)-Asp-Pro-Glu-Thr-Gly-Glu-Cys(&^2)-Leu-Pro-OH][&^1(naphthalene)2,3-diyldimethylene&^2]}] ({Stearoyl-βAla}-LQCDPETGECLP-OH; linker 3-10 via X2) | 1 to 100 |  |
| CCCCCCCCCCCCCCCCCC(=O)NCCC(=O)N[C@@H](CC(C)C)C(=O)N[C@@H](CCC(N)=O)C(=O)N[C@H]1CSCc2cccc(c2)CSC[C@@H](C(=O)N[C@@H](CC(C)C)C(=O)N2CCC[C@H]2C(=O)O)NC(=O)[C@H](CCC(=O)O)NC(=O)CNC(=O)[C@H]([C@@H](C)O)NC(=O)[C@H](CCC(=O)O)NC(=O)[C@@H]2CCCN2C(=O)[C@H](CC(=O)O)NC1=O [Example 37, {[Stearyl-βA1a-Leu-Gln-Cys(&^1)-Asp-Pro-Glu-Thr-Gly-Glu-Cys(&^2)-Leu-Pro-OH][&^1(1,3-phenylenediyl)dimethylene&^2]}] ({Stearoyl-βAla}-LQCDPETGECLP-OH; linker 3-10 via mXylylene) | 1 to 100 |  |
| CCCCCCCCCCCCCCCCCC(=O)NCCC(=O)N[C@@H](CC(C)C)C(=O)N[C@@H](CCC(N)=O)C(=O)N[C@H]1CSCc2cc3ccccc3cc2CSC[C@@H](C(=O)N[C@@H](CC(C)C)C(=O)N2CCC[C@H]2C(=O)O)NC(=O)[C@H](CCC(=O)O)NC(=O)CNC(=O)[C@H]([C@@H](C)O)NC(=O)[C@H](CCC(=O)O)NC(=O)[C@H](C)NC(=O)[C@H](CC(=O)O)NC1=O [Example 38, {[Stearyl-βAla-Leu-Gln-Cys(&^1)-Asp-Ala-Glu-Thr-Gly-Glu-Cys(&^2)-Leu-Pro-OH][&^1(naphthalene)2,3-diyldimethylene&^2]}] ({Stearoyl-βAla}-LQCDAETGECLP-OH; linker 3-10 via X2) | 1 to 100 |  |
| CCCCCCCCCCCCCCCCCC(=O)NCCC(=O)N[C@@H](CC(C)C)C(=O)N[C@@H](CCC(N)=O)C(=O)N[C@H]1CSCc2cccc(c2)CSC[C@@H](C(=O)N[C@@H](CC(C)C)C(=O)N2CCC[C@H]2C(=O)O)NC(=O)[C@H](CCC(=O)O)NC(=O)CNC(=O)[C@H]([C@@H](C)O)NC(=O)[C@H](CCC(=O)O)NC(=O)[C@H](C)NC(=O)[C@H](CC(=O)O)NC1=O [Example 39, {[Stearyl-βAla-Leu-Gln-Cys(&^1)-Asp-Ala-Glu-Thr-Gly-Glu-Cys(&^2)-Leu-Pro-OH][&^1(1,3-phenylenediyl)dimethylene&^2]}] ({Stearoyl-βAla}-LQCDAETGECLP-OH; linker 3-10 via mXylylene) | 1 to 100 |  |
| CCCCCCCCCCCCCCCCCC(=O)NCCC(=O)N[C@@H](CC(C)C)C(=O)N[C@@H](CCC(N)=O)C(=O)N[C@H]1Cc2cccc(c2)SC[C@@H](C(=O)N[C@@H](CC(C)C)C(=O)N2CCC[C@H]2C(=O)O)NC(=O)[C@H](CCC(=O)O)NC(=O)CNC(=O)[C@H]([C@@H](C)O)NC(=O)[C@H](CCC(=O)O)NC(=O)[C@@H]2CCCN2C(=O)[C@H](CC(=O)O)NC1=O [Example 40, Stearyl-βAla-Leu-Gln-Phe(m-&^1)-Asp-Pro-Glu-Thr-Gly-Glu-Cys(&^1)-Leu-Pro-OH] ({Stearoyl-βAla}-LQ[X8]DPETGECLP-OH; thioether 3-10) | 1 to 100 |  |
| CC(=O)N[C@H]1CSCc2ccccc2CSC[C@@H](C(N)=O)NC(=O)[C@H](CCC(=O)O)NC(=O)CNC(=O)[C@H]([C@@H](C)O)NC(=O)[C@H](CCC(=O)O)NC(=O)[C@H](C)N(C)C(=O)[C@H](CC(=O)O)NC1=O [Example 43, {[Acetyl-Cys(&^1)-Asp-MeAla-Glu-Thr-Gly-Glu-Cys(&^2)-NH2][&^1(1,2-phenylenediyl)dimethylene&^2]}] | 1 to 100 |  |
| CCCCCCCCCCCCCCCCCC(=O)NCCC(=O)N(C)[C@@H](CC(C)C)C(=O)N[C@@H](CCC(N)=O)C(=O)N[C@H]1CSCc2ccccc2CSC[C@@H](C(=O)N[C@@H](CC(C)C)C(=O)N2CCC[C@H]2C(N)=O)NC(=O)[C@H](CCC(=O)O)NC(=O)CNC(=O)[C@H]([C@@H](C)O)NC(=O)[C@H](CCC(=O)O)NC(=O)[C@@H]2CCCN2C(=O)[C@H](CC(=O)O)NC1=O [Example 45, {[Stearyl-βAla-MeLeu-Gln-Cys(&^1)-Asp-Pro-Glu-Thr-Gly-Glu-Cys(&^2)-Leu-Pro-NH2][&^1(1,2-phenylenediyl)dimethylene&^2]}] | 1 to 100 |  |
| CCCCCCCCCCCCCCCCCC(=O)NCCC(=O)N[C@@H](CCCCN)C(=O)N[C@@H](CCC(N)=O)C(=O)N[C@H]1CSCc2ccccc2CSC[C@@H](C(=O)N[C@@H](CC(C)C)C(=O)N2CCC[C@H]2C(N)=O)NC(=O)[C@H](CCC(=O)O)NC(=O)CNC(=O)[C@H]([C@@H](C)O)NC(=O)[C@H](CCC(=O)O)NC(=O)[C@@H]2CCCN2C(=O)[C@H](CC(=O)O)NC1=O [Example 47, {[Stearyl-βAla-Lys-Gln-Cys(&^1)-Asp-Pro-Glu-Thr-Gly-Glu-Cys(&^2)-Leu-Pro-NH2][&^1(1,2-phenylenediyl)dimethylene&^2]}] | < 1 |  |
| CCCCCCCCCCCCCCCCCC(=O)NCCC(=O)N[C@@H](CC(C)C)C(=O)N[C@@H](CCC(N)=O)C(=O)N[C@H]1CSCc2ccccc2CSC[C@@H](C(=O)N[C@@H](CC(C)C)C(=O)N2CCC[C@H]2C(N)=O)NC(=O)[C@H](CCC(=O)O)NC(=O)CNC(=O)[C@H]([C@@H](C)O)NC(=O)[C@H](CCC(=O)O)NC(=O)[C@@H]2CCCN2C(=O)[C@H](CC(=O)O)NC1=O [Example 48, {[Stearyl-βAla-Leu-Gln-Cys(&^1)-Asp-Pro-Glu-Thr-Gly-Glu-Cys(&^2)-Leu-Pro-NH2][&^1(1,2-phenylenediyl)dimethylene&^2]}] ({Stearoyl-βAla}-LQCDPETGECLP-NH2; linker 3-10 via oXylylene) | 1 to 100 |  |
| CCCCCCCCCCCCCCCCCC(=O)NCCC(=O)N[C@H](C(=O)N[C@H](C(=O)N[C@H]1CSCc2ccccc2CSC[C@@H](C(=O)N[C@H](C(=O)N[C@H](C(N)=O)C(C)C)C(C)C)NC(=O)[C@H](CCC(=O)O)NC(=O)CNC(=O)[C@H]([C@@H](C)O)NC(=O)[C@H](CCC(=O)O)NC(=O)[C@@H]2CCCN2C(=O)[C@H](CC(=O)O)NC1=O)C(C)C)C(C)C [Example 52, {[Stearyl-βAla-Val-Val-Cys(&^1)-Asp-Pro-Glu-Thr-Gly-Glu-Cys(&^2)-Val-Val-NH2][&^1(1,2-phenylenediyl)dimethylene&^2]}] ({Stearoyl-βAla}-VVCDPETGECVV-NH2; linker 3-10 via oXylylene) | 1 to 100 |  |
| CCCCCCCCCCCCCCCCCC(=O)NCCC(=O)N[C@@H](CCCCN)C(=O)N[C@@H](CCCCN)C(=O)N[C@H]1CSCc2ccccc2CSC[C@@H](C(=O)N[C@@H](CCCCN)C(=O)N[C@@H](CCCCN)C(N)=O)NC(=O)[C@H](CCC(=O)O)NC(=O)CNC(=O)[C@H]([C@@H](C)O)NC(=O)[C@H](CCC(=O)O)NC(=O)[C@@H]2CCCN2C(=O)[C@H](CC(=O)O)NC1=O [Example 53, {[Stearyl-βAla-Lys-Lys-Cys(&^1)-Asp-Pro-Glu-Thr-Gly-Glu-Cys(&^2)-Lys-Lys-NH2][&^1(1,2-phenylenediyl)dimethylene&^2]}] ({Stearoyl-βAla}-KKCDPETGECKK-NH2; linker 3-10 via oXylylene) | 1 to 100 |  |
| CC(C)C[C@H](NC(=O)[C@@H]1CSCc2c(F)c(F)c(F)c(F)c2CSC[C@H](NC(=O)[C@H](CCC(N)=O)NC(=O)[C@@H](N)CC(C)C)C(=O)N[C@@H](CC(=O)O)C(=O)N2CCC[C@H]2C(=O)N[C@@H](CCC(=O)O)C(=O)N[C@@H]([C@@H](C)O)C(=O)NCC(=O)N[C@@H](CCC(=O)O)C(=O)N1)C(=O)N1CCC[C@H]1C(=O)NCCC(=O)N[C@@H](CCCNC(=N)N)C(=O)N[C@@H](CCCCN)C(=O)N[C@@H](CCCCN)C(=O)N[C@@H](CCCNC(=N)N)C(=O)N[C@@H](CCCNC(=N)N)C(=O)N[C@@H](CCC(N)=O)C(=O)N[C@@H](CCCNC(=N)N)C(=O)N[C@@H](CCCNC(=N)N)C(=O)N[C@@H](CCCNC(=N)N)C(N)=O [Example 56] |  | < 1 |
